Assay results as given in US12138383B2, “Heating unit for use in a drug delivery device” (ALEXZA PHARMACEUTICALS, INC., priority 2007, dated 2024).

Legend:
[1] = Aerosol purity of condensation aerosol vaporized from drug-coated substrate in substrate screening apparatus (HPLC of filter extract); type: physicochemical; conditions: heat-oxidized perforated 316 stainless steel
Text: The substrate screening apparatus 400 is made of a machined plastic (polyoxymethylene, DELRIN® Acetal Resin, DuPont, Wilmington, DE) block 402 with a 2 cm^2 cross-sectional area for mounting a substrate 412. Block 402 includes a first airway 404 extending from first inlet 414 to outlet 422. Block 402 also include a second airway 406 extending from second inlet 416 to substrate 412, where it typically joins the first airway. The substrate 412 is mounted in the substrate screening apparatus 400 across two electrodes 420. A first air flow 414 is established in first airway 404 and a second air flow 416 is established in second airway 406 such that the second air flow 416 passes from the second airway 406 to first airway 404 through holes in the substrate 412. While providing air flows 414 and 416, the substrate 412 is heated, typically by discharging a capacitor (not shown) across the substrate 412. In a one embodiment, the flow of air passing through holes in the substrate 412 is in a direction orthogonal to that of air flow 414. Substrate 412 is coated with a drug composition film. The substrate 412 is heated to vaporized all or a portion of the drug composition. The vaporized drug subsequently cools and condenses to form a condensation aerosol that is carried to the outlet by air flow 414, joined by air flow 416). Accordingly, the condensation aerosol is emitted from the outlet 422.
The test substrates were then coated with a drug composition. The drug was typically dissolved in a volatile organic solvent (e.g., dichloromethane/methanol mixture or acetone or other suitable organic solvent) and then spray-coated onto the test substrates using an automated spray coater. Coating parameters, such as the drug concentration in the coating solution, solution flow rate, were selected to obtain a uniform drug coating of the desired coating density (i.e., mass/area).
Total air flow through the substrate screening apparatus was set by providing air flows 414 and 416 at a desired ratio. (As used herein, “across” air flow refers to air flow 414 and “bottom” air flow refers to air flow 416.) Brass electrodes 420 attached to the substrate screening apparatus 400 were used to clamp the substrate 412 in place and provide electrical connections. For most experiments, a 1-Farad capacitor was used as the energy source. The capacitor was typically charged to 11-14 volts, depending on the desired substrate temperature. A high current relay was used to connect the circuit and discharge the capacitor across the substrate to induce heating and vaporization of the drug.
FIG. 5 is a schematic of another embodiment of a substrate screening apparatus 500 that was used to direct air flow through the holes of coated polyimide film (KAPTON® polyimide film) substrates (see FIGS. 2A and 2B). Substrate screening apparatus 500 is similar in configuration and operation to substrate screening apparatus 400, with the exception that substrate screening apparatus 500 includes two electrodes 502 on the same side of the screening apparatus 500, whereas substrate screening apparatus 400 includes two electrodes 420 on opposite sides of the screening apparatus 400. In the examples using polyimide film substrates described below, a polyimide film substrate coated with a drug composition was placed in substrate screening apparatus 500 across electrodes 502. A computer-controlled power supply was connected to the electrodes. The power supply was typically capable of heating the polyimide film substrate to the target temperature within 300 milliseconds, and the substrate was kept at the target temperature for a duration of 1 second.
To determine aerosol purity and emitted dose, a 2 μm Teflon filter (ZEFLUOR PTFE filters, available from Zefon International, Inc., Ocala, FL) was placed immediately downstream from the screening apparatus during aerosol generation. […]

[2] = Aerosol particle size distribution by Anderson Cascade Impactor; type: physicochemical; conditions: heat-oxidized perforated 316 stainless steel; for Average MMAD (μm): 28.3 liters/minute; for GSD / MMAD (μm): approx. 0.07 mg/cm^2, 28.3 liters/minute
Text: An Anderson Cascade Impactor (ACI), an inertial impaction size separating device, was used to determine the particle size distribution of the aerosol. The ACI consists of several stages, with each successive stage having a smaller size cutoff. By extracting and determining the mass of drug deposited at each stage, it is possible to estimate the particle size distribution of the aerosol. The ACI was placed immediately downstream from the screening apparatus. Again, the airway and substrate were extracted to determine the mass balance for each actuation of the device.

aerosol purity ([1]; 0.07 mg/cm^2, 20 liters/minute, as little as 5% of air flow through the substrate): 98%
Emitted Aerosol Purity (%) ([1]; 20 liters/minute, across:bottom 0:100): 98.5%
aerosol purity ([1]; 20 liters/minute, across:bottom 0:100, coating density 0.08 mg/cm^2): 99.3 ± 0.1
Mean Aerosol Purity (%) ([1]; 20 liters/minute, across:bottom 0:100, coating density 0.10 mg/cm^2): 98.8%
Mean Aerosol Purity (%) ([1]; 20 liters/minute, across:bottom 0:100, coating density 0.14 mg/cm^2): 98.8%
aerosol purity ([1]; 20 liters/minute, across:bottom 0:100, coating density 0.26 mg/cm^2): 98.9 ± 0.1
aerosol purity ([1]; 20 liters/minute, across:bottom 0:100, coating density 0.58 mg/cm^2): 98.7 ± 0.3
Emitted Aerosol Purity (%) ([1]; 20 liters/minute, across:bottom 50:50): 98.4%
Mean Aerosol Purity (%) ([1]; 20 liters/minute, across:bottom 50:50, coating density 0.10 mg/cm^2): 98.8%
Mean Aerosol Purity (%) ([1]; 20 liters/minute, across:bottom 50:50, coating density 0.14 mg/cm^2): 98.9%
aerosol purity ([1]; 20 liters/minute, across:bottom 90:10, coating density 0.08 mg/cm^2): 99.2 ± 0.1
aerosol purity ([1]; 20 liters/minute, across:bottom 90:10, coating density 0.26 mg/cm^2): 98.6 ± 0.1
aerosol purity ([1]; 20 liters/minute, across:bottom 90:10, coating density 0.58 mg/cm^2): 98.4 ± 0.3
Emitted Aerosol Purity (%) ([1]; 20 liters/minute, across:bottom 100:0): 96.4%
aerosol purity ([1]; 20 liters/minute, across:bottom 100:0, coating density 0.08 mg/cm^2): 95.8 ± 0.6
Mean Aerosol Purity (%) ([1]; 20 liters/minute, across:bottom 100:0, coating density 0.10 mg/cm^2): 95.7%
Mean Aerosol Purity (%) ([1]; 20 liters/minute, across:bottom 100:0, coating density 0.14 mg/cm^2): 94.8%
aerosol purity ([1]; 20 liters/minute, across:bottom 100:0, coating density 0.26 mg/cm^2): 94.8 ± 0.2
aerosol purity ([1]; 20 liters/minute, across:bottom 100:0, coating density 0.58 mg/cm^2): 90.7 ± 0.4
Average MMAD (μm) ([2]; coating density 0.08 mg/cm^2, across:bottom 90:10): 2.2 μm
Average MMAD (μm) ([2]; coating density 0.26 mg/cm^2, across:bottom 90:10): 1.6 μm
Average MMAD (μm) ([2]; coating density 0.58 mg/cm^2, across:bottom 0:100): 0.9 μm
Average MMAD (μm) ([2]; coating density 0.58 mg/cm^2, across:bottom 90:10): 1.9 μm
Average MMAD (μm) ([2]; coating density 0.58 mg/cm^2, across:bottom 100:0): 1.7 μm
GSD ([2]; across:bottom 0:100): 2.4 ± 0.1
MMAD (μm) ([2]; across:bottom 0:100): 0.4 ± 0.0 μm
GSD ([2]; across:bottom 90:10): 2.0 ± 0.1
MMAD (μm) ([2]; across:bottom 90:10): 2.7 ± 0.1 μm
GSD ([2]; across:bottom 100:0): 4.0 ± 0.5
MMAD (μm) ([2]; across:bottom 100:0): 3.6 ± 0.5 μm
SMILES: CCCCNc1cc(C(=O)O)cc(S(N)(=O)=O)c1Oc1ccccc1 [Bumetanide, bumetanide]
